Measurements: patent US9700047B2, “Macrocyclic picolinamides as fungicides” (Dow AgroSciences LLC, priority 2014, dated 2017)
Read-outs that look alike come from different tables or passages of the source.

Tested on: Puccinia triticina; Synonym: Puccinia recondita f sp. tritici
Assay: Wheat brown rust (PUCCRT) disease control on wheat seedlings
Format: in vivo
Conditions: for pest or weed control at 100 ppm: High Volume activity at 100 ppm; for pest or weed control at 121.5 g/ha: Low Volume activity at 121.5 g/H
Procedure: All fungicides were evaluated using the aforementioned method for their activity vs. all target diseases, unless stated otherwise. Wheat leaf blotch and brown rust activity were also evaluated using track spray applications, in which case the fungicides were formulated as EC formulations, containing 0.1% Trycol 5941 in the spray solutions. Wheat plants (variety Yuma) were grown from seed in a greenhouse in 50% mineral soil/50% soil-less Metro mix until the first leaf was fully emerged, with 7-10 seedlings per pot. These plants were inoculated with an aqueous spore suspension of Puccinia triticina either prior to or after fungicide treatments. […] The plants were then transferred to a greenhouse set at 24° C. for disease to develop. Fungicide formulation, application and disease assessment followed the procedures as described in the Example A.

[1] = 24 h, 1 Day Protectant, read-out: PUCCRT 1DP % Control rating
[2] = 72 h, 3 Day Curative, read-out: PUCCRT 3DC % Control rating

Compound | pest or weed control at 100 ppm [1] | pest or weed control at 100 ppm [2] | pest or weed control at 121.5 g/ha [1] | pest or weed control at 121.5 g/ha [2]
CCCC[C@@H]1[C@@H](Cc2ccc(C(F)(F)F)cc2)CCC[C@H](NC(=O)c2nccc(OC)c2O)C(=O)O[C@H]1C [Compound 72] | > 70% | < 70% | – | –
COc1ccnc(C(=O)N[C@H]2CCC[C@H](CCC(C)C)[C@@H](CCc3ccccc3)[C@H](C)OC2=O)c1O [Compound 83] | > 70% | < 70% | – | –
COc1ccnc(C(=O)N[C@H]2CCC[C@H](CC3CC3)[C@@H](Cc3ccccc3)[C@H](C)OC2=O)c1O [Compound 94] | – | – | > 70% | < 70%
COc1ccnc(C(=O)N[C@H]2CCC[C@H](Cc3ccccc3)[C@@H](C3CCCC3)[C@H](C)OC2=O)c1O [Compound 75] | > 70% | < 70% | – | –
COc1ccnc(C(=O)N[C@H]2CCC[C@H](Cc3ccc(Cl)cc3)[C@@H](CC(C)C)[C@H](C)OC2=O)c1OC(C)=O [Compound 13] | – | – | > 70% | < 70%
COc1ccnc(C(=O)N[C@H]2CCC[C@H](CCCc3ccccc3)[C@@H](Cc3ccccc3)[C@H](C)OC2=O)c1O [Compound 98] | > 70% | < 70% | – | –
COc1ccnc(C(=O)N[C@H]2CCC[C@H](Cc3ccccc3)[C@@H](CCc3ccccc3)[C@H](C)OC2=O)c1OC(C)=O [Compound 18] | – | – | < 70% | < 70%
COc1ccnc(C(=O)N[C@H]2CCC[C@H](CCCc3ccccc3)[C@@H](Cc3ccc(OC(F)(F)F)cc3)[C@H](C)OC2=O)c1OCOC(C)=O [Compound 59] | – | – | > 70% | < 70%
COc1ccnc(C(=O)N[C@H]2CCC[C@H](Cc3ccc(Cl)cc3)[C@@H](Cc3ccccc3)[C@H](C)OC2=O)c1O [Compound 79] | > 70% | < 70% | – | –
COc1ccnc(C(=O)N[C@H]2CCC[C@H](Cc3ccc(C(F)(F)F)cc3)[C@@H](Cc3ccc(OC(F)(F)F)cc3)[C@H](C)OC2=O)c1OCOC(C)=O [Compound 65] | – | – | < 70% | < 70%
COc1ccnc(C(=O)N[C@H]2CCC[C@H](Cc3ccc(C(F)(F)F)cc3)[C@@H](Cc3ccc(OC(F)(F)F)cc3)[C@H](C)OC2=O)c1O [Compound 96] | < 70% | < 70% | – | –
COc1ccnc(C(=O)N[C@H]2CCC[C@H](Cc3ccc(C(F)(F)F)cc3)[C@@H](CC(C)C)[C@H](C)OC2=O)c1OCOC(C)=O [Compound 23] | – | – | > 70% | < 70%
COc1ccnc(C(=O)N[C@H]2CCC[C@H](CCCc3ccccc3)[C@@H](CCc3ccccc3)[C@H](C)OC2=O)c1O [Compound 85] | > 70% | < 70% | – | –
COc1ccnc(C(=O)N[C@H]2CCC[C@H](CCCc3ccccc3)[C@@H](Cc3ccccc3)[C@H](C)OC2=O)c1OCOC(C)=O [Compound 70] | – | – | > 70% | < 70%
CCC[C@H]1CCC[C@H](NC(=O)c2nccc(OC)c2OC(C)=O)C(=O)O[C@@H](C)[C@@H]1Cc1ccccc1 [Compound 38] | – | – | > 70% | > 70%
COc1ccnc(C(=O)N[C@H]2CCC[C@H](CCC(C)C)[C@@H](C3CCCC3)[C@H](C)OC2=O)c1OC(C)=O [Compound 43] | – | – | > 70% | < 70%
COc1ccnc(C(=O)N[C@H]2CCC[C@H](Cc3ccc(C(F)(F)F)cc3)[C@@H](Cc3ccccc3)[C@H](C)OC2=O)c1O [Compound 81] | > 70% | < 70% | – | –
COc1ccnc(C(=O)N[C@H]2CCC[C@H](Cc3ccccc3)[C@@H](Cc3ccccc3)[C@H](C)OC2=O)c1OC(C)=O [Compound 5] | – | – | > 70% | > 70%
COc1ccnc(C(=O)N[C@H]2CCC[C@H](Cc3ccc(Cl)cc3)[C@@H](CC(C)C)[C@H](C)OC2=O)c1O [Compound 76] | > 70% | < 70% | – | –
COc1ccnc(C(=O)N[C@H]2CCC[C@H](Cc3ccccc3)[C@@H](Cc3ccc(OC(F)(F)F)cc3)[C@H](C)OC2=O)c1OCOC(C)=O [Compound 68] | – | – | < 70% | < 70%
CCCC[C@@H]1[C@@H](Cc2ccccc2)CCC[C@H](NC(=O)c2nccc(OC)c2O)C(=O)O[C@H]1C [Compound 71, N-((3S,7R,8R,9S)-7-benzyl-8-butyl-9-methyl-2-oxooxonan-3-yl)-3-hydroxy-4-methoxypicolinamide] | > 70% | > 70% | – | –

Compound | pest or weed control at 100 ppm [1] | pest or weed control at 100 ppm [2] | pest or weed control at 121.5 g/ha [1] | pest or weed control at 121.5 g/ha [2]
CCC[C@H]1CCC[C@H](NC(=O)c2nccc(OC)c2OCOC(C)=O)C(=O)O[C@@H](C)[C@@H]1c1ccccc1 [Compound 54] | – | – | > 70% | > 70%
CCC[C@H]1CCC[C@H](NC(=O)c2nccc(OC)c2OCOC(C)=O)C(=O)O[C@@H](C)[C@@H]1Cc1ccccc1 [Compound 37] | – | – | > 70% | > 70%
COc1ccnc(C(=O)N[C@H]2CCC[C@H](CCCc3ccccc3)[C@@H](CCc3ccccc3)[C@H](C)OC2=O)c1OC(C)=O [Compound 33] | – | – | < 70% | < 70%
COc1ccnc(C(=O)N[C@H]2CCC[C@H](CCCc3ccccc3)[C@@H](CC(C)C)[C@H](C)OC2=O)c1OC(C)=O [Compound 56] | – | – | > 70% | < 70%
COc1ccnc(C(=O)N[C@H]2CCC[C@H](Cc3ccc(Cl)cc3)[C@@H](CC(C)C)[C@H](C)OC2=O)c1OCOC(C)=O [Compound 12] | – | – | > 70% | < 70%
COc1ccnc(C(=O)N[C@H]2CCC[C@H](CCCc3ccccc3)[C@@H](Cc3ccc(OC(F)(F)F)cc3)[C@H](C)OC2=O)c1OC(=O)C(C)C [Compound 58, 4-methoxy-2-(((3S,7S,8R,9S)-9-methyl-2-oxo-7-(3-phenylpropyl)-8-(4-(trifluoromethoxy)benzyl)oxonan-3-yl)carbamoyl)pyridin-3-yl isobutyrate] | – | – | < 70% | < 70%
CCOCC(=O)OCOc1c(OC)ccnc1C(=O)N[C@H]1CCC[C@H](Cc2ccccc2)[C@@H](Cc2ccccc2)[C@H](C)OC1=O [Compound 8, ((2-(((3S,7R,8R,9S)-7,8-dibenzyl-9-methyl-2-oxooxonan-3-yl)carbamoyl)-4-methoxypyridin-3-yl)oxy)methyl 2-ethoxyacetate] | – | – | > 70% | < 70%
COc1ccnc(C(=O)N[C@H]2CCC[C@H](CCC(C)C)[C@@H](Cc3ccccc3)[C@H](C)OC2=O)c1O [Compound 73] | > 70% | < 70% | – | –
COc1ccnc(C(=O)N[C@H]2CCC[C@H](Cc3ccccc3)[C@@H](CCC(C)C)[C@H](C)OC2=O)c1OCOC(C)=O [Compound 47] | – | – | > 70% | < 70%
COc1ccnc(C(=O)N[C@H]2CCC[C@H](Cc3ccccc3)[C@@H](CCC(C)C)[C@H](C)OC2=O)c1OC(=O)C(C)C [Compound 49] | – | – | < 70% | < 70%
COc1ccnc(C(=O)N[C@H]2CCC[C@H](Cc3ccc(C(F)(F)F)cc3)[C@@H](Cc3ccc(OC(F)(F)F)cc3)[C@H](C)OC2=O)c1OC(C)=O [Compound 67] | – | – | < 70% | < 70%
COc1ccnc(C(=O)N[C@H]2CCC[C@H](Cc3ccccc3)[C@@H](CCc3ccccc3)[C@H](C)OC2=O)c1OCOC(=O)C(C)C [Compound 17] | – | – | > 70% | < 70%
COc1ccnc(C(=O)N[C@H]2CCC[C@H](Cc3ccccc3)[C@@H](Cc3ccc(F)cc3)[C@H](C)OC2=O)c1O [Compound 95] | – | – | > 70% | < 70%
CCOCC(=O)OCOc1c(OC)ccnc1C(=O)N[C@H]1CCC[C@H](Cc2ccc(C(F)(F)F)cc2)[C@@H](Cc2ccc(OC(F)(F)F)cc2)[C@H](C)OC1=O [Compound 66] | – | – | < 70% | < 70%
COc1ccnc(C(=O)N[C@H]2CCC[C@H](Cc3ccc(C(F)(F)F)cc3)[C@@H](CC(C)C)[C@H](C)OC2=O)c1OC(C)=O [Compound 22] | – | – | > 70% | < 70%
COc1ccnc(C(=O)N[C@H]2CCC[C@H](Cc3ccc(Cl)cc3)[C@@H](C3CCCC3)[C@H](C)OC2=O)c1O [Compound 84] | > 70% | < 70% | – | –
COc1ccnc(C(=O)N[C@H]2CCC[C@H](CC3CC3)[C@@H](Cc3ccccc3)[C@H](C)OC2=O)c1OC(C)=O [Compound 60] | – | – | > 70% | > 70%
COc1ccnc(C(=O)N[C@H]2CCC[C@H](CCC(C)C)[C@@H](CCc3ccccc3)[C@H](C)OC2=O)c1OCOC(C)=O [Compound 34] | – | – | > 70% | < 70%
COc1ccnc(C(=O)N[C@H]2CCC[C@H](Cc3ccc(Cl)cc3)[C@@H](Cc3ccccc3)[C@H](C)OC2=O)c1OC(C)=O [Compound 21] | – | – | > 70% | < 70%
CCOCC(=O)OCOc1c(OC)ccnc1C(=O)N[C@H]1CCC[C@H](Cc2ccc(Cl)cc2)[C@@H](C2CCCC2)[C@H](C)OC1=O [Compound 31] | – | – | > 70% | < 70%
